Laboratory results from ChEMBL document CHEMBL1201862, “PubChem BioAssay data set” (2004).
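Following 48 hours of exposure in 96-well plates, responses at five concentrations were used to interpolate endpoints linearly. Abbreviation: GI50, concentration required for 50% inhibition of growth.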 The source made the active and inactive calls. No stated cut-off is given here; in the data, active = GI50 up to about 1.1 µM and inactive = higher.

Tests used:
Assay in all cases: NCI anticancer screen, dose series, 48 h
[1] = test system: 786-0
[2] = test system: BT-549
[3] = test system: COLO 205
[4] = test system: HCT-15
[5] = test system: HOP-62
[6] = test system: IGROV-1
[7] = test system: KM12
[8] = test system: LOX IMVI
[9] = test system: MDA-N
[10] = test system: Malme-3M
[11] = test system: NCI-H23
[12] = test system: NCI-H460
[13] = test system: OVCAR-5
[14] = test system: SK-MEL-28
[15] = test system: SK-MEL-5
[16] = test system: SN12C
[17] = test system: SNB-75
[18] = test system: SR
[19] = test system: T47D
[20] = test system: UACC-257

**Q.** `CN(C)CCSS(=O)(=O)O` was tested. Which GI50 [1] did it give?
**A.** > 100 µM (inactive)

**Q.** And the GI50 [2]?
**A.** > 100 µM (inactive)

**Q.** And the GI50 [3]?
**A.** > 100 µM (inactive)

**Q.** What about the GI50 [4] of the same compound?
**A.** > 100 µM

**Q.** And the GI50 [5]?
**A.** 15.4 µM (inactive)

**Q.** What about the GI50 [6] of the same compound?
**A.** > 100 µM (inactive)

**Q.** What about the GI50 [7] of the same compound?
**A.** > 100 µM (inactive)

**Q.** And the GI50 [8]?
**A.** 40.2 µM (inactive)

**Q.** And the GI50 [9]?
**A.** > 100 µM (inactive)

**Q.** What about the GI50 [10] of the same compound?
**A.** > 100 µM (inactive)

**Q.** And the GI50 [11]?
**A.** > 100 µM (inactive)

**Q.** What about the GI50 [12] of the same compound?
**A.** 16 µM (inactive)

**Q.** What about the GI50 [13] of the same compound?
**A.** > 100 µM (inactive)

**Q.** And the GI50 [14]?
**A.** > 100 µM (inactive)

**Q.** And the GI50 [15]?
**A.** > 100 µM (inactive)

**Q.** And the GI50 [16]?
**A.** > 100 µM (inactive)

**Q.** And the GI50 [17]?
**A.** < 0.01 µM (active)

**Q.** What about the GI50 [18] of the same compound?
**A.** > 100 µM (inactive)

**Q.** What about the GI50 [19] of the same compound?
**A.** > 100 µM (inactive)

**Q.** `CN(C)CCSc1cc(-c2ccccc2)c2ccccc2n1` was tested. Which GI50 [1] did it give?
**A.** 10.8 µM (inactive)

**Q.** What about the GI50 [2] of the same compound?
**A.** 12.3 µM (inactive)

**Q.** And the GI50 [3]?
**A.** 1.97 µM (inactive)

**Q.** And the GI50 [4]?
**A.** 3.82 µM

**Q.** What about the GI50 [5] of the same compound?
**A.** 10.3 µM (inactive)

**Q.** What about the GI50 [6] of the same compound?
**A.** 12.9 µM (inactive)

**Q.** What about the GI50 [7] of the same compound?
**A.** 14.3 µM (inactive)

**Q.** What about the GI50 [8] of the same compound?
**A.** 10.4 µM (inactive)

**Q.** What about the GI50 [9] of the same compound?
**A.** 10.2 µM (inactive)

**Q.** And the GI50 [10]?
**A.** 10.8 µM (inactive)

**Q.** And the GI50 [11]?
**A.** 10 µM (inactive)

**Q.** What about the GI50 [13] of the same compound?
**A.** 13.4 µM (inactive)

**Q.** And the GI50 [14]?
**A.** 4.7 µM (inactive)

**Q.** What about the GI50 [15] of the same compound?
**A.** 1.63 µM (inactive)

**Q.** What about the GI50 [16] of the same compound?
**A.** 15 µM (inactive)

**Q.** And the GI50 [17]?
**A.** 4.04 µM (inactive)

**Q.** And the GI50 [18]?
**A.** 13.6 µM (inactive)

**Q.** And the GI50 [19]?
**A.** 15.4 µM (inactive)

**Q.** And the GI50 [20]?
**A.** 10.4 µM (inactive)

**Q.** With `O=S(=O)(c1cc(Cl)ccc1Cl)N1CCN(c2cccc(Cl)c2)CC1` as the compound, how does the GI50 [1] read?
**A.** > 100 µM (inactive)

**Q.** What about the GI50 [2] of the same compound?
**A.** > 100 µM (inactive)

**Q.** What about the GI50 [4] of the same compound?
**A.** > 100 µM

**Q.** And the GI50 [5]?
**A.** > 100 µM (inactive)

**Q.** What about the GI50 [6] of the same compound?
**A.** > 100 µM (inactive)

**Q.** And the GI50 [7]?
**A.** > 100 µM (inactive)

**Q.** What about the GI50 [8] of the same compound?
**A.** > 100 µM (inactive)

**Q.** What about the GI50 [9] of the same compound?
**A.** 59.2 µM (inactive)

**Q.** And the GI50 [10]?
**A.** > 100 µM (inactive)

**Q.** What about the GI50 [11] of the same compound?
**A.** > 100 µM (inactive)

**Q.** What about the GI50 [12] of the same compound?
**A.** > 100 µM (inactive)

**Q.** What about the GI50 [13] of the same compound?
**A.** > 100 µM (inactive)

**Q.** And the GI50 [14]?
**A.** > 100 µM (inactive)

**Q.** And the GI50 [15]?
**A.** 52.6 µM (inactive)

**Q.** And the GI50 [16]?
**A.** > 100 µM (inactive)

**Q.** What about the GI50 [17] of the same compound?
**A.** > 100 µM (inactive)

**Q.** What about the GI50 [18] of the same compound?
**A.** > 100 µM (inactive)

**Q.** And the GI50 [19]?
**A.** > 100 µM (inactive)

**Q.** What about the GI50 [20] of the same compound?
**A.** > 100 µM (inactive)

**Q.** Which results are given for `SC1=NC2(CCCCCC2)NN1c1ccccc1`?
**A.** GI50 [1]: > 30.6 µM (inactive); GI50 [2]: > 100 µM (inactive); GI50 [3]: 0.104 µM (active); GI50 [4]: 0.168 µM; GI50 [6]: > 39.4 µM (inactive); GI50 [7]: 0.291 µM (active); GI50 [8]: 0.82 µM (active); GI50 [9]: 3.09 µM (inactive); GI50 [10]: 16.4 µM (inactive); GI50 [11]: 9.23 µM (inactive); GI50 [12]: 0.979 µM (active); GI50 [13]: 1.91 µM (inactive); GI50 [14]: 1.11 µM (active); GI50 [15]: 93.3 µM (inactive); GI50 [16]: > 27.3 µM (inactive); GI50 [17]: > 66.8 µM (inactive); GI50 [18]: 28.8 µM (inactive); GI50 [19]: 0.597 µM (active); GI50 [20]: 23.9 µM (inactive)

**Q.** For `Cc1ccc(OCCn2cc(Nc3ccccc3)c(=O)[nH]c2=O)cc1`, which GI50 [1] is on record?
**A.** > 100 µM (inactive)

**Q.** And the GI50 [2]?
**A.** > 100 µM (inactive)

**Q.** What about the GI50 [3] of the same compound?
**A.** > 100 µM (inactive)

**Q.** What about the GI50 [4] of the same compound?
**A.** > 100 µM

**Q.** And the GI50 [6]?
**A.** > 100 µM (inactive)

**Q.** And the GI50 [7]?
**A.** > 100 µM (inactive)

**Q.** And the GI50 [8]?
**A.** > 100 µM (inactive)

**Q.** What about the GI50 [9] of the same compound?
**A.** > 100 µM (inactive)

**Q.** What about the GI50 [10] of the same compound?
**A.** > 100 µM (inactive)

**Q.** And the GI50 [11]?
**A.** > 100 µM (inactive)

**Q.** What about the GI50 [12] of the same compound?
**A.** > 100 µM (inactive)

**Q.** And the GI50 [13]?
**A.** > 100 µM (inactive)

**Q.** And the GI50 [14]?
**A.** > 100 µM (inactive)

**Q.** And the GI50 [15]?
**A.** > 100 µM (inactive)

**Q.** And the GI50 [16]?
**A.** > 100 µM (inactive)

**Q.** And the GI50 [17]?
**A.** 34.3 µM (inactive)

**Q.** And the GI50 [18]?
**A.** > 100 µM (inactive)

**Q.** And the GI50 [19]?
**A.** > 100 µM (inactive)

**Q.** And the GI50 [20]?
**A.** > 100 µM (inactive)

**Q.** Which results are given for `N#Cc1sc2c(c1OC(=O)c1cccs1)c(=O)n(-c1ccccc1)c(=S)n2-c1ccccc1`?
**A.** GI50 [1]: 31.4 µM (inactive); GI50 [2]: 15.5 µM (inactive); GI50 [3]: 19.9 µM (inactive); GI50 [4]: 17.3 µM; GI50 [5]: 19.6 µM (inactive); GI50 [6]: 19.8 µM (inactive); GI50 [7]: 18.9 µM (inactive); GI50 [8]: 20.3 µM (inactive); GI50 [9]: 26.7 µM (inactive); GI50 [10]: 18.2 µM (inactive); GI50 [11]: 25.3 µM (inactive); GI50 [12]: 28.2 µM (inactive); GI50 [14]: 21.9 µM (inactive); GI50 [15]: 16 µM (inactive); GI50 [16]: 19.2 µM (inactive); GI50 [17]: 38.7 µM (inactive); GI50 [18]: 25.6 µM (inactive); GI50 [19]: 10.9 µM (inactive); GI50 [20]: 32 µM (inactive)
